From publication PMC11302339, “A series of pyrimidine-based antifungals with anti-mold activity disrupt ER function in Aspergillus fumigatus” (Microbiology Spectrum, 2024)
In brackets after ≈: the same amount, converted by molar mass. Where two headings read alike, the source gives them in different places.

Columns and labels:
[1] = Pharmacokinetics in mice (serum/plasma and brain); type: in vivo, CD-1 mice; conditions: single 10 mg/kg intraperitoneal; for Cmax / half-life: female, CD-1, mouse, ip, CD1 mice; for half-life: read-out: half-life (T1/2)
Method: Twenty-one female CD-1 mice were dosed intraperitoneally with 10 mg/kg 1. Whole blood was collected in a syringe coated with ACD. Plasma was processed from whole blood by centrifugation at 10,000 rpm for 10 min. Brain tissue was harvested and gently washed with 1× PBS to remove residual circulating blood. The tissue was weighed and snap frozen in liquid nitrogen.
For the standards and quality controls, 98.0 and 98.8 µL of blank vendor plasma were added to a microfuge tube and spiked with 2.0 and 1.2 µL of initial standard. Standards, quality controls, and samples of 100 µL were then precipitated with 200 µL of methanol containing 0.15% formic acid and […]. The samples were vortexed 15 s, incubated at room temperature for 10 min, and centrifuged at 13,200 rpm twice in a standard microcentrifuge. The supernatant was then analyzed by LC-MS/MS. The vendor supplied the plasma used in standards and quality controls (QCs; lot # MSE460968, ACD anti-coagulant; Bioreclamation, LLC).
Brain tissues were homogenized in 3× volume of PBS. For the standards and quality control samples, 98.0 and 98.8 µL of pooled blank brain were added to a microfuge tube and spiked with 2.0 or 1.2 µL of initial standard. Standards, quality control samples of 100 µL, were then precipitated with 200 µL of methanol containing 0.15% formic acid and 12.5 ng/mL IS (final concentrations). The samples were vortexed for 15 s, incubated at room temperature for 10 min, and centrifuged at 13,200 rpm twice in a standard microcentrifuge. The supernatant was then analyzed by LC-MS/MS.

C. albicans = assay: MIC testing (CLSI broth dilution); type: cell-based, Candida albicans
Method: MICs were determined using Clinical and Laboratory Standards Institute guidelines ([48], [49]). All yeasts were cultured overnight in 3 mL YPD at 30°C, then washed twice in sterile phosphate-buffered saline (PBS). Twofold serial dilutions of each drug were prepared in RMPI + MOPS, then 1 × 10^3 cells were added per well. For mold species, wells were inoculated with 1.25 × 10^3 conidia per well. Plates were incubated at 37°C for 24 (Candida spp. and S. cerevisiae), 48 (Aspergillus spp., M. circinelloides, S. apiospermum, and L. prolificans), or 72 (C. neoformans and F. oxysporum) hours. S. cerevisiae BY4743 MICs were tested in YPD due to nutritional requirements of this strain. Each assay was performed in technical duplicate in at least two independent experiments performed on different days.

C. neoformans H99 = assay: Generation of resistant isolates (high-density plating, serial passaging); type: cell-based, Cryptococcus neoformans
Method: Finally, we attempted to generate resistant isolates to understand the rate of resistance and potentially uncover mechanism of action. First, to determine spontaneous rates, we performed high-density plating (~2 × 10^9 cells) of C. neoformans on YPD plates containing 64 µg/mL 1 ([24]). […] Next, we employed serial passaging of both C. neoformans H99 and Saccharomyces cerevisiae BY4741 to evaluate evolved resistance upon exposure to sub-MIC concentrations. Yeast cells were grown in a 96-well format in the presence of 1/4 MIC 1, then cultures were passaged to fresh media containing a twofold increase in drug concentration. At each passage, the inoculum was diluted ~1:100 to allow ~10 generations of growth for a total of at least 50 generations over the course of the experiment.

HepG2 cells = assay: Cytotoxicity by LDH release; type: cell-based, human; conditions: HepG2, 24 hours
Method: (§1) HepG2 [American Type Culture Collection (ATCC), HB-8065], HeLa (ATCC, CCL-2), and A549 (ATCC, CCL-185) cells were maintained and cultured in Dulbecco’s modified Eagle medium (Gibco, Cat # 11965–092) with 10% FBS and 1% penicillin/streptomycin at 37°C with 5% CO2. Cells were seeded in 96-well plates at a density of 1.25 × 10^4 cells/well and incubated overnight at 37°C with 5% CO2; then, media were removed and replaced with media containing a twofold drug dilution series with equal DMSO across all wells. Cells were incubated for an additional 24 hours, then the supernatant was removed and used to quantify lactate dehydrogenase release using the CyQuant LDH assay kit (Invitrogen, Cat # C20300) following the manufacturers’ directions. LDH was normalized to a maximum lysis control treated with Triton-X. HeLa and A549 cells were purchased in 2023, and the cells used for these studies were directly from fresh vials. HepG2 cells for these studies were used from a fresh, low passage (P3) vial saved directly from purchased stocks.

A549 cells = assay: Cytotoxicity by LDH release; type: cell-based, human; conditions: A549, 24 hours
Method: as §1

HeLa cells = assay: Cytotoxicity by LDH release; type: cell-based, human; conditions: 24 hours
Method: as §1

C. neoformans ∆ire1 = assay: Susceptibility of ∆ire1 mutant on YPD plates; type: cell-based, Cryptococcus neoformans; conditions: YPD with 4 or 16 µg/mL 1, 30 °C, 72 hours
Method: To determine interactions of 1 with ER stress in Cryptococcus neoformans, an overnight culture of H99 was diluted to 1 × 10^6 CFU/mL, then three 10-fold dilutions were prepared. Three-microliter spots of each cell dilution were plated in triplicate on YPD containing DMSO or 4 µg/mL 1 in combination with DTT, brefeldin A, or tunicamycin. Plates were incubated at 37°C for 72 hours. Images are representative of two independent experiments performed in biological triplicate.
Supplemental Figure 3. 1 interacts with ER stress in C. neoformans but activity is not dependent on Ire1. A) Serial dilutions of C. neoformans H99 on YPD with DMSO or 4 µg/mL 1 combined with ER stresses Brefeldin A (BfA), DTT, or Tunicamycin (Tun). Plates were incubated at 37 °C for 72 hours. Representative images of two independent experiments with three biological replicates each. B) Serial dilutions of C. neoformans H99 wild type and ∆ire1 mutant on YPD containing 4 µg/mL 1, 16 µg/mL 1 or DMSO incubated at 30 °C for 72 hours.
Representative images of two independent experiments with three biological replicates each.
(1 picture or pasted object on this page, not shown here)

What does the source list for `OC1CC(c2cc(N3CCC(CCc4ccccc4)CC3)ncn2)C1` (centres unmarked) [compound 1]?
time of Cmax post-administration ([1]; brain tissue): 10 min; Cmax ([1]; brain tissue): 2000 ng/g; half-life ([1]; brain tissue): 4.92 h; Cmax ([1]; serum/plasma): 491 ng/mL; half-life ([1]; serum/plasma): 0.383 h; time of Cmax post-administration ([1]; serum): 10 min; blood-brain barrier penetration ([1]; mice): penetrated the blood-brain barrier; MIC (C. albicans; Candida albicans, strain SC5314, CLSI conditions, 24 h, read-out: MIC): 64 µg/mL (≈ 190 µM); MIC (C. albicans; Candida albicans, strain not named, read-out: MIC): 64 µg/mL (≈ 190 µM); MIC (C. albicans; strain TWO7241, azole-resistant clinical isolate, CLSI conditions): 64 µg/mL (≈ 190 µM); MIC (C. albicans; strain TWO7243, azole-resistant clinical isolate, CLSI conditions): 64 µg/mL (≈ 190 µM); evolved resistance, serial passaging (C. neoformans H99; from 1/4 MIC, twofold increases, at least 50 generations): did not recover stable resistance; spontaneous resistance, high-density plating (C. neoformans H99; ~2 × 10^9 cells on YPD with 64 µg/mL 1): unable to isolate resistant colonies; LD50 (LDH release) (HepG2 cells): 111 µg/mL; LD50 (LDH release) (A549 cells): 198 µg/mL; LD50 (LDH release) (HeLa cells): 146 µg/mL; susceptibility of ∆ire1 mutant vs wild type (C. neoformans ∆ire1): did not show increased susceptibility
